Experimental data taken from ChEMBL document CHEMBL1201861, “Genomics of Drug Sensitity in Cancer screening data, Wellcome Trust Sanger Institute”.
pIC50: −log10 of the molar value.

Experiments:
Experiment in all cases: cells
D-247MG = format: functional, cell-based, Homo sapiens; settings: Homo sapiens, D-247MG
Description: SANGER: Inhibition of human D-247MG cell growth in a cell viability assay.

DMS-79 = format: functional, cell-based; settings: Homo sapiens;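 also: growth inhibition measured with a cell viability assay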
Description: SANGER: Inhibition of human DMS-79 cell growth in a cell viability assay.

ES1 = format: functional, cell-based, Homo sapiens; settings: Homo sapiens, ES1;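 also: growth inhibition of ES1 cells, read out with a cell viability assay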
Description: SANGER: Inhibition of human ES1 cell growth in a cell viability assay.

EW-1 = format: functional, cell-based, Homo sapiens; settings: Homo sapiens, EW-1
Description: SANGER: Inhibition of human EW-1 cell growth in a cell viability assay.

EW-11 = format: functional, cell-based, Homo sapiens; settings: Homo sapiens, EW-11;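 also: growth inhibition of human EW-11 cells, measured with a cell viability assay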
Description: SANGER: Inhibition of human EW-11 cell growth in a cell viability assay.

EW-24 = format: functional, cell-based; settings: Homo sapiens;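 also: human EW-24 cancer cell line, growth inhibition read out via a cell viability assay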
Description: SANGER: Inhibition of human EW-24 cell growth in a cell viability assay.

FaDu = format: functional, cell-based, Homo sapiens; settings: Homo sapiens, FaDu;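 also: cell viability readout of growth inhibition in FaDu cells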
Description: SANGER: Inhibition of human FADU cell growth in a cell viability assay.

HCC1187 = format: functional, cell-based, Homo sapiens; settings: Homo sapiens, HCC1187;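 also: growth inhibition of HCC1187 cells, read out with a cell viability assay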
Description: SANGER: Inhibition of human HCC1187 cell growth in a cell viability assay.

HCC2218 = format: functional, cell-based; settings: Homo sapiens;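 also: cell viability assay read-out, with IC50 given as the concentration that inhibits growth of the cell line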
Description: SANGER: Inhibition of human HCC2218 cell growth in a cell viability assay.

HCE-4 = format: functional, cell-based, Homo sapiens; settings: Homo sapiens, HCE-4;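 also: cell viability assay measuring inhibition of growth in the human HCE-4 cell line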
Description: SANGER: Inhibition of human HCE-4 cell growth in a cell viability assay.

HN = format: functional, cell-based, Homo sapiens; settings: Homo sapiens, HN
Description: SANGER: Inhibition of human HN cell growth in a cell viability assay.

HOP-62 = format: functional, cell-based, Homo sapiens; settings: Homo sapiens, HOP-62;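 also: cell growth inhibition determined with a viability assay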
Description: SANGER: Inhibition of human HOP-62 cell growth in a cell viability assay.

HuCCT-1 = format: functional, cell-based, Homo sapiens, HuCCT1; settings: Homo sapiens, HuCCT-1;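 also: growth inhibition of HuCCT-1 cells, read out by a cell viability assay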
Description: SANGER: Inhibition of human HuCCT1 cell growth in a cell viability assay.

JVM-2 = format: functional, cell-based; settings: Homo sapiens;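 also: growth inhibition of JVM-2 cells determined by a cell viability assay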
Description: SANGER: Inhibition of human JVM-2 cell growth in a cell viability assay.

LB771-HNC = format: functional, cell-based, Homo sapiens; settings: Homo sapiens, LB771-HNC;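 also: growth inhibition of LB771-HNC human cells, read out with a cell viability assay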
Description: SANGER: Inhibition of human LB771-HNC cell growth in a cell viability assay.

LK-2 = format: functional, cell-based, Homo sapiens; settings: Homo sapiens, LK-2;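 also: growth inhibition of LK-2 cells, read out with a viability assay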
Description: SANGER: Inhibition of human LK-2 cell growth in a cell viability assay.

LS-123 = format: functional, cell-based, Homo sapiens; settings: Homo sapiens, LS-123
Description: SANGER: Inhibition of human LS-123 cell growth in a cell viability assay.

M14 = format: functional, cell-based, Homo sapiens; settings: Homo sapiens, M14;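 also: growth inhibition of M14 cells, read out with a cell viability assay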
Description: SANGER: Inhibition of human M14 cell growth in a cell viability assay.

MDA-MB-415 = format: functional, cell-based; settings: Homo sapiens
MKN-28 = format: functional, cell-based, Homo sapiens; settings: Homo sapiens, MKN-28;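 also: cell viability assay read-out, IC50 reflects suppression of growth of human MKN-28 cells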
Description: SANGER: Inhibition of human MKN28 cell growth in a cell viability assay.

MSTO-211H = format: functional, cell-based, Homo sapiens; settings: Homo sapiens, MSTO-211H
Description: SANGER: Inhibition of human MSTO-211H cell growth in a cell viability assay.

NCI-H2342 = format: functional, cell-based; settings: Homo sapiens;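 also: growth inhibition of the cancer cell line, determined with a cell viability assay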
Description: SANGER: Inhibition of human NCI-H2342 cell growth in a cell viability assay.

NCI-H2347 = format: functional, cell-based, Homo sapiens; settings: Homo sapiens, NCI-H2347;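 also: growth inhibition of the cell line, read out with a cell viability assay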
Description: SANGER: Inhibition of human NCI-H2347 cell growth in a cell viability assay.

NCI-H69 = format: functional, cell-based; settings: Homo sapiens;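 also: growth inhibition of the cell line, read out with a cell viability assay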
Description: SANGER: Inhibition of human NCI-H69 cell growth in a cell viability assay.

NCI-H720 = format: functional, cell-based; settings: Homo sapiens;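 also: growth inhibition of human NCI-H720 cells determined by a cell viability assay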
Description: SANGER: Inhibition of human NCI-H720 cell growth in a cell viability assay.

NY = format: functional, cell-based, Homo sapiens; settings: Homo sapiens, NY
Description: SANGER: Inhibition of human NY cell growth in a cell viability assay.

P12-Ichikawa = format: functional, cell-based; settings: Homo sapiens
Panc1005 = format: functional, cell-based, Homo sapiens; settings: Homo sapiens, Panc1005;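 also: growth inhibition of human PANC-10-05 cells, measured by a cell viability assay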
Description: SANGER: Inhibition of human PANC-10-05 cell growth in a cell viability assay.

RO82-W-1 = format: functional, cell-based, Homo sapiens; settings: Homo sapiens, RO82-W-1;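 also: growth inhibition of human RO82-W-1 cells, measured with a cell viability assay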
Description: SANGER: Inhibition of human RO82-W-1 cell growth in a cell viability assay.

RPMI-2650 = format: functional, cell-based, Homo sapiens; settings: Homo sapiens, RPMI-2650
Description: SANGER: Inhibition of human RPMI-2650 cell growth in a cell viability assay.

RPMI-7951 = format: functional, cell-based, Homo sapiens; settings: Homo sapiens, RPMI-7951
Description: SANGER: Inhibition of human RPMI-7951 cell growth in a cell viability assay.

RPMI-8226 = format: functional, cell-based; settings: Homo sapiens
Description: SANGER: Inhibition of human RPMI-8226 cell growth in a cell viability assay.

SCC-4 = format: functional, cell-based, Homo sapiens; settings: Homo sapiens, SCC-4;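 also: growth inhibition of human SCC-4 cells, read out as cell viability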
Description: SANGER: Inhibition of human SCC-4 cell growth in a cell viability assay.

SF-539 = format: functional, cell-based, Homo sapiens; settings: Homo sapiens, SF-539;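 also: Read-out is a cell viability assay, with IC50 reflecting inhibition of cell growth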
Description: SANGER: Inhibition of human SF539 cell growth in a cell viability assay.

SK-N-AS = format: functional, cell-based, Homo sapiens; settings: Homo sapiens, SK-N-AS;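 also: growth inhibition of human SK-N-AS cells, measured with a cell viability assay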
Description: SANGER: Inhibition of human SK-N-AS cell growth in a cell viability assay.

SK-N-FI = format: functional, cell-based, Homo sapiens; settings: Homo sapiens, SK-N-FI;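 also: cell viability assay measuring growth inhibition of human SK-N-FI cells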
Description: SANGER: Inhibition of human SK-N-FI cell growth in a cell viability assay.

SK-UT-1 = format: functional, cell-based, Homo sapiens; settings: Homo sapiens, SK-UT-1;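 also: growth inhibition of SK-UT-1 cells, measured by a cell viability assay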
Description: SANGER: Inhibition of human SK-UT-1 cell growth in a cell viability assay.

SW982 = format: functional, cell-based; settings: Homo sapiens;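 also: growth inhibition of SW982 cells, read out with a cell viability assay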
Description: SANGER: Inhibition of human SW982 cell growth in a cell viability assay.

T84 = format: functional, cell-based, Homo sapiens; settings: Homo sapiens, T84;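 also: growth inhibition measured with a cell viability readout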
Description: SANGER: Inhibition of human T84 cell growth in a cell viability assay.

8305C = format: functional, cell-based, Homo sapiens; settings: Homo sapiens, 8305C
Description: SANGER: Inhibition of human 8305C cell growth in a cell viability assay.

A101D = format: functional, cell-based, Homo sapiens; settings: Homo sapiens, A101D;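 also: growth inhibition of the cell line, measured with a viability assay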
Description: SANGER: Inhibition of human A101D cell growth in a cell viability assay.

ABC-1 = format: functional, cell-based, Homo sapiens; settings: Homo sapiens, ABC-1;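 also: growth inhibition of human ABC-1 cells, read out by a cell viability assay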
Description: SANGER: Inhibition of human ABC-1 cell growth in a cell viability assay.

AGS = format: functional, cell-based, Homo sapiens; settings: Homo sapiens, AGS;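 also: growth inhibition of AGS cells, determined with a cell viability assay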
Description: SANGER: Inhibition of human AGS cell growth in a cell viability assay.

AU565 = format: functional, cell-based, Homo sapiens; settings: Homo sapiens, AU565;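 also: cell viability assay measuring growth inhibition of human AU565 cells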
Description: SANGER: Inhibition of human AU565 cell growth in a cell viability assay.

BT-474 = format: functional, cell-based, Homo sapiens; settings: Homo sapiens, BT-474
Description: SANGER: Inhibition of human BT-474 cell growth in a cell viability assay.

Becker = format: functional, cell-based, Homo sapiens; settings: Homo sapiens, Becker;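 also: growth inhibition of Becker cells, read out with a cell viability assay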
Description: SANGER: Inhibition of human Becker cell growth in a cell viability assay.

CAL-27 = format: functional, cell-based, Homo sapiens; settings: Homo sapiens, CAL-27;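 also: Viability-based readout, IC50 reflecting inhibition of CAL-27 cell growth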
Description: SANGER: Inhibition of human CAL-27 cell growth in a cell viability assay.

U-266 = format: functional, cell-based; settings: Homo sapiens
Description: SANGER: Inhibition of human U-266 cell growth in a cell viability assay.

UACC-893 = format: functional, cell-based, Homo sapiens; settings: Homo sapiens, UACC-893
Description: SANGER: Inhibition of human UACC-893 cell growth in a cell viability assay.

CAMA-1 = format: functional, cell-based, Homo sapiens; settings: Homo sapiens, CAMA-1;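 also: growth inhibition of CAMA-1 cells, read out with a cell viability assay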
Description: SANGER: Inhibition of human CAMA-1 cell growth in a cell viability assay.

CAPAN-1 = format: functional, cell-based, Homo sapiens; settings: Homo sapiens, CAPAN-1;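 also: growth suppression of CAPAN-1 cells, read out by a cell viability assay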
Description: SANGER: Inhibition of human CAPAN-1 cell growth in a cell viability assay.

CAS-1 = format: functional, cell-based, Homo sapiens; settings: Homo sapiens, CAS-1;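 also: growth inhibition of CAS-1 cells, measured with a cell viability assay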
Description: SANGER: Inhibition of human CAS-1 cell growth in a cell viability assay.

For `COC(=O)CNC(=O)C(=O)OC`, the pIC50 (D-247MG) was 2.62, the pIC50 (DMS-79) was < 2.40 and the pIC50 (ES1) was 2.90. The pIC50 (EW-1) was 3.01, the pIC50 (EW-11) was 2.98 and the pIC50 (EW-24) was 2.64. For the same compound, the pIC50 (FaDu) was 4.00, the pIC50 (HCC1187) was < 2.40 and the pIC50 (HCC2218) was < 2.40. It also gave a pIC50 (HCE-4) of 3.26, a pIC50 (HN) of 2.99 and a pIC50 (HOP-62) of 3.78. For the same compound, the pIC50 (HuCCT-1) was 3.68, the pIC50 (JVM-2) was < 2.40 and the pIC50 (LB771-HNC) was 3.38. For the same compound, the pIC50 (LK-2) was < 2.40, the pIC50 (LS-123) was < 2.40 and the pIC50 (M14) was 2.73. The pIC50 (MDA-MB-415) was 2.53, the pIC50 (MKN-28) was 2.95 and the pIC50 (MSTO-211H) was < 2.40. The pIC50 (NCI-H2342) was 3.98, the pIC50 (NCI-H2347) was 3.92 and the pIC50 (NCI-H69) was < 2.40. For the same compound, the pIC50 (NCI-H720) was < 2.40, the pIC50 (NY) was 3.14 and the pIC50 (P12-Ichikawa) was 4.21. For the same compound, the pIC50 (Panc1005) was 3.58, the pIC50 (RO82-W-1) was < 2.40 and the pIC50 (RPMI-2650) was 3.55. For the same compound, the pIC50 (RPMI-7951) was 3.49, the pIC50 (RPMI-8226) was 3.06 and the pIC50 (SCC-4) was 3.06. The pIC50 (SF-539) was 3.51, the pIC50 (SK-N-AS) was 3.01 and the pIC50 (SK-N-FI) was < 2.40. For the same compound, the pIC50 (SK-UT-1) was 2.98, the pIC50 (SW982) was 4.47 and the pIC50 (T84) was < 2.40. For the same compound, the pIC50 (8305C) was 3.22, the pIC50 (A101D) was 3.79 and the pIC50 (ABC-1) was 3.35. The pIC50 (AGS) was 3.20, the pIC50 (AU565) was < 2.40 and the pIC50 (BT-474) was < 2.40. For the same compound, the pIC50 (Becker) was 3.56, the pIC50 (CAL-27) was < 2.40 and the pIC50 (U-266) was < 2.40. For the same compound, the pIC50 (UACC-893) was < 2.40, the pIC50 (CAMA-1) was < 2.40 and the pIC50 (CAPAN-1) was 4.00. The pIC50 (CAS-1) was 3.58.
`COc1cc([C@@H]2c3cc4c(cc3[C@@H](O[C@@H]3O[C@@H]5CO[C@@H](C)O[C@H]5[C@H](O)[C@H]3O)[C@H]3COC(=O)[C@H]23)OCO4)cc(OC)c1O` [ETOPOSIDE] was tested, and the pIC50 (D-247MG) was < 4.80, the pIC50 (DMS-79) was < 4.80 and the pIC50 (ES1) was 6.59. For the same compound, the pIC50 (EW-1) was 5.84, the pIC50 (EW-11) was 5.32 and the pIC50 (EW-24) was < 4.80. The pIC50 (FaDu) was 5.89, the pIC50 (HCC1187) was < 4.80 and the pIC50 (HCC2218) was < 4.80. The pIC50 (HCE-4) was 6.10, the pIC50 (HN) was < 4.80 and the pIC50 (HOP-62) was 6.28. The pIC50 (HuCCT-1) was 5.72, the pIC50 (JVM-2) was < 4.80 and the pIC50 (LB771-HNC) was < 4.80. For the same compound, the pIC50 (LK-2) was 5.85, the pIC50 (LS-123) was 5.40 and the pIC50 (M14) was 5.10. The pIC50 (MDA-MB-415) was < 4.80, the pIC50 (MKN-28) was 5.59 and the pIC50 (MSTO-211H) was < 4.80. The pIC50 (NCI-H2342) was 6.26, the pIC50 (NCI-H2347) was 5.01 and the pIC50 (NCI-H69) was 5.09. The pIC50 (NCI-H720) was < 4.80, the pIC50 (NY) was 5.35 and the pIC50 (P12-Ichikawa) was 6.50. The pIC50 (Panc1005) was 5.54, the pIC50 (RO82-W-1) was < 4.80 and the pIC50 (RPMI-2650) was 6.24. It also gave a pIC50 (RPMI-7951) of 5.64, a pIC50 (RPMI-8226) of 4.84 and a pIC50 (SCC-4) of 5.14. The pIC50 (SF-539) was 5.79, the pIC50 (SK-N-AS) was < 4.80 and the pIC50 (SK-N-FI) was < 4.80. The pIC50 (SK-UT-1) was 7.37, the pIC50 (SW982) was 6.88 and the pIC50 (T84) was < 4.80. The pIC50 (8305C) was 5.63, the pIC50 (A101D) was 5.92 and the pIC50 (ABC-1) was 6.39. For the same compound, the pIC50 (AGS) was 6.50, the pIC50 (AU565) was 5.58 and the pIC50 (BT-474) was < 4.80. For the same compound, the pIC50 (Becker) was 4.93, the pIC50 (CAL-27) was 4.98 and the pIC50 (U-266) was < 4.80. The pIC50 (UACC-893) was < 4.80, the pIC50 (CAMA-1) was 4.89 and the pIC50 (CAPAN-1) was 5.90. The pIC50 (CAS-1) was < 4.80.
